# Data as given in ChEMBL document CHEMBL1136945, “Antimalarial activity of thiosemicarbazones and purine derived nitriles” (Bioorg Med Chem Lett, 2009).
# Experiments:
# Format in all cases: functional, organism-based
# Plasmodium falciparum [1] = experiment: (§1) Antimalarial activity as reduced parasitaemia after 72 hrs against chloroquine-resistant Plasmodium falciparum K1 infected human O+ erythrocytes by DNA stain without pepstatin; details: K1, 72 h
# Plasmodium falciparum [2] = experiment: Antimalarial activity as reduced parasitaemia after 72 hrs against chloroquine-sensitive Plasmodium falciparum 3D7 infected human O+ erythrocytes by DNA stain without pepstatin; details: 3D7, 72 h
# Plasmodium falciparum [3] = experiment: Antimalarial activity as reduced parasitaemia after 72 hrs against chloroquine-sensitive Plasmodium falciparum 3D7 infected human O+ erythrocytes by DNA stain with pepstatin; details: 3D7, 72 h
# Plasmodium falciparum [4] = experiment: as §1; details: K1, 72 h; remark: listed apart in the source
Compound,EC50 (Plasmodium falciparum [1]) [µM],EC50 (Plasmodium falciparum [2]) [µM],EC50 (Plasmodium falciparum [3]) [µM],EC50 (Plasmodium falciparum [4]) [µM]
COC(CCN1CNc2c(NCc3ccc(Cl)c(Cl)c3)nc(C#N)nc21)OC,> 30,> 30,30,> 30
CCCCN1CNc2c(NCCc3ccccc3)nc(C#N)nc21,> 30,> 30,> 30,> 30
COc1ccc(CNc2nc(C#N)nc3c2NCN3C2CCCC2)cc1,> 30,> 30,> 30,> 30
Cc1ccc(CNc2nc(C#N)nc3c2NCN3CCCO)cc1,> 30,> 30,> 30,> 30
N#Cc1nc(NCc2cccc(-c3ccsc3)c2)c2ncn(CCCO)c2n1,> 30,> 30,> 30,> 30
N#Cc1nc(NCc2ccc(Cl)cc2)c2c(n1)N(Cc1cccc(C(F)(F)F)c1)CN2,30,> 30,30,> 30
N#Cc1nc(NCc2ccc(Cl)cc2)c2c(n1)N(CC1CCCCC1)CN2,> 30,> 30,> 30,> 30
NC(=S)N/N=C(/CCc1ccccc1)c1cc(C(F)(F)F)cc(C(F)(F)F)c1,30,30,30,30
CCCCN1CNc2c(NCc3ccc(Cl)c(Cl)c3)nc(C#N)nc21,> 30,> 30,30,> 30
Cc1ccc(/C(=N/NC(N)=S)c2cc(C(F)(F)F)cc(C(F)(F)F)c2)cc1,30,30,30,30
N#Cc1nc(NCc2ccccc2)c2c(n1)N(CCCO)CN2,> 30,> 30,> 30,> 30
N#Cc1nc(NCc2ccc(-c3ccsc3)cc2)c2ncn(CCCO)c2n1,30,30,30,30
N#Cc1nc(NCc2ccc(-c3cccnc3)cc2)c2ncn(CCCO)c2n1,> 30,> 30,> 30,> 30
C=Cc1cccc(-c2cccc(CNc3nc(C#N)nc4c3ncn4CCCO)c2)c1,> 30,> 30,> 30,> 30
N#Cc1nc(NCc2cccc(-c3ccccc3)c2)c2ncn(CCCO)c2n1,> 30,> 30,30,> 30
CN(C)c1cccc(-c2cccc(CNc3nc(C#N)nc4c3ncn4CCCO)c2)c1,> 30,> 30,> 30,> 30
N#Cc1nc(NCc2ccc(-c3cccs3)cc2)c2ncn(CCCO)c2n1,30,30,30,30
N#Cc1nc(NCc2ccc(Cl)cc2)c2c(n1)N(CCCCO)CN2,> 30,> 30,> 30,> 30
N#Cc1nc(NCc2cccc(-c3ccc4ccccc4c3)c2)c2ncn(CCCO)c2n1,> 30,> 30,30,> 30
CCCCN1CNc2c(NCc3cccc(C)c3)nc(C#N)nc21,> 30,> 30,> 30,> 30
CCCCN1CNc2c(NCc3ccc(F)cc3)nc(C#N)nc21,> 30,> 30,> 30,> 30
C=Cc1ccc(-c2cccc(CNc3nc(C#N)nc4c3ncn4CCCO)c2)cc1,> 30,> 30,> 30,> 30
CC(Nc1nc(C#N)nc2c1NCN2Cc1ccccc1)c1ccccc1 (stereo unspecified),> 30,> 30,30,> 30

Compound,EC50 (Plasmodium falciparum [1]) [µM],EC50 (Plasmodium falciparum [2]) [µM],EC50 (Plasmodium falciparum [3]) [µM],EC50 (Plasmodium falciparum [4]) [µM]
N#Cc1nc(NCc2ccccc2)c2c(n1)N(C1CCCCO1)CN2 (stereo unspecified),> 30,> 30,> 30,> 30
N#Cc1nc(NCc2cccc(-c3ccco3)c2)c2ncn(CCCO)c2n1,> 30,> 30,> 30,> 30
NC(=S)N/N=C(/CCc1ccccc1)c1cccc(Cl)c1,> 30,> 30,,> 30
COc1ccc(CNc2nc(C#N)nc3c2NCN3Cc2ccccc2)cc1,> 30,> 30,> 30,> 30
Cc1ccc(/C(=N/NC(N)=S)c2ccccc2)cc1,> 30,> 30,> 30,> 30
N#Cc1nc(NCc2ccc(F)cc2)c2c(n1)N(Cc1ccccc1)CN2,> 30,> 30,> 30,> 30
COCCCN1CNc2c(NCc3ccc(Cl)c(Cl)c3)nc(C#N)nc21,> 30,> 30,30,> 30
Cc1ccccc1-c1cccc(CNc2nc(C#N)nc3c2ncn3CCCO)c1,30,30,30,30
CC(=O)Nc1cccc(CNc2nc(C#N)nc3c2ncn3CCCO)c1,11,15,6,15
CC(Nc1nc(C#N)nc2c1NCN2C1CCCC1)c1ccccc1 (stereo unspecified),30,> 30,> 30,30
Cc1cccc(CNc2nc(C#N)nc3c2NCN3C2CCCC2)c1,> 30,> 30,> 30,> 30
CCCCN1CNc2c(NCc3ccc(C)cc3)nc(C#N)nc21,> 30,> 30,> 30,> 30
CCC(C)CNc1nc(C#N)nc2c1NCN2C1CCCC1 (stereo unspecified),> 30,> 30,> 30,> 30
N#Cc1nc(NCc2ccc(-c3ccco3)cc2)c2ncn(CCCO)c2n1,12,18,12,13
NC(=S)N/N=C(/C=C/c1ccccc1)c1cccc(C(F)(F)F)c1,30,30,30,30
N#Cc1nc(NCc2cccc(Cc3cccc(Cl)c3)c2)c2ncn(CCCO)c2n1,> 30,> 30,> 30,> 30
N#Cc1nc(NCc2cccc(-c3cccs3)c2)c2ncn(CCCO)c2n1,> 30,> 30,> 30,> 30
CC(C)Oc1ccccc1-c1cccc(CNc2nc(C#N)nc3c2ncn3CCCO)c1,30,30,30,30
NC(=S)N/N=C(/CCc1ccccc1)c1ccccc1,> 30,> 30,,> 30
N#Cc1nc(NCc2cccc(-c3ccoc3)c2)c2ncn(CCCO)c2n1,> 30,> 30,> 30,> 30
NC(=S)N/N=C(\c1cc(Cl)cc(Cl)c1)c1cccs1,> 30,> 30,30,> 30
N#Cc1nc(NCc2ccc(Br)cc2)c2c(n1)N(CCCc1ccccc1)CN2,> 30,> 30,> 30,> 30
NC(=S)N/N=C(/c1ccccc1)c1cc(Cl)cc(Cl)c1,> 30,> 30,,> 30
